Experiments:
[1] = tested on: bone resorption; test: Inhibitory action against bone resorption (45Ca release from embryo front arm bone, IL-1β); type: cell-based; details: Rattus norvegicus; 25 μg/ml, with interleukin-1β, 72 hours; read-out: Inhibitory rate against bone resorption (%)
Experimental: Inhibitory action against bone resorption
According to Raisz et al method (J. Clin. Invest., 155, 103 (1965)), bone piece of front arm of […] labelled with radioactive calcium (^45 Ca) was prepared in order to measure bone resorption. That is, the radioactive calcium (^45 CaCl2; 200 μCi) was injected under the skin to the back of rats in the 17th day of pregnancy and two days later they were killed with exsanguination by cutting of the carotid artery thereof. After the embryos were picked up and washed with sterilized phosphated buffer solution, the bone of front arm was taken out, which was then rendered free of the attached muscle and cartilage of the both ends, and said piece of bone was cultivated in the culture medium of BGJb.
Next, according to the method of Tsuda et al (J. Bone Miner. Metab., 1, 207 (1986)), the effect of the present invention compound against the bone resorption was determined, which are described as follows.
The piece of bone was put on a milipore-filter, and was pre-cultivated, in a well with 24 holes plate accomodating 0.6 ml culture medium of BGJb, at 37° C. and under 5% carbon dioxide. After the precultivation for 24 hours, said bone with the filter were transferred into a test culture medium added with interleukin-1β (1L-1β) or with both 1L-1β and drugs and the cultivation was continued. After 72 hours cultivation in said test culture medium, 0.3 ml of the supernatant was taken out and ^45 Ca released from the piece of bone was determined. After the piece of bone was immersed in 0.3 ml of 1N hydrochloric acid for more than 1.5 hours, 10 ml of ACSII was added thereto and the radioactivity was determined. Furthermore, the activity of bone resorption was represented by the ratio (percentage) of ^45 Ca released in the supernatant of cultivation to the total radioactivity which had been contained in the piece of bone (the sum of radioactivities in the piece of bone and the supernatant of cultivation). […]

[2] = biological target: Bovine serum albumin (Bos taurus, UniProt P02769); test: biochemical
Experimental: Inhibitory action against thermal denaturation of protein
Bovine serum albumin was dissolved into 1/15M phosphoric acid buffer solution, which was then adjusted to 0.7%. After adding the solution of the present invention compound thereto, it was heated at 65° C. for 7-8 minutes. After cooled, the absorbance at 660 nm was measured, compared with the absorbance of the reference to derive the inhibitory rate and then the concentration necessary to inhibit 50% was obtained.

[3] = tested on: vascular permeability; test: Inhibition of increased vascular permeability (acetic acid i.p., Evans blue dye leakage); type: in vivo, Male ddy mice; details: 100 mg/kg p.o., N = 9
Experimental: Inhibition of increased vascular permeability
Male ddy mice (6 weeks of age) were used in this experiment. Example 9 compound suspended in 5% gum arabic solution was administered p.o., 45 minutes before the i.v. injection of 1.0% Evans blue solution (0.1 ml/10 g B.W.). Immediately after the i.v. injection, 1.0% acetic acid solution was administered i.p. (0.1 ml/10 g B.W.). The mice were killed 30 minutes after the acetic acid injection. Peritoneal exudate was collected by washing out the peritoneal cavity with physiological saline and centrifuged at 3,000 r.p.m. After the centrifugation, spectrophotometry of the supernatant was measured at 630 nm. Results were expressed as dye leakage and percent inhibition.

Chain of Bovine serum albumin (P02769 25-607): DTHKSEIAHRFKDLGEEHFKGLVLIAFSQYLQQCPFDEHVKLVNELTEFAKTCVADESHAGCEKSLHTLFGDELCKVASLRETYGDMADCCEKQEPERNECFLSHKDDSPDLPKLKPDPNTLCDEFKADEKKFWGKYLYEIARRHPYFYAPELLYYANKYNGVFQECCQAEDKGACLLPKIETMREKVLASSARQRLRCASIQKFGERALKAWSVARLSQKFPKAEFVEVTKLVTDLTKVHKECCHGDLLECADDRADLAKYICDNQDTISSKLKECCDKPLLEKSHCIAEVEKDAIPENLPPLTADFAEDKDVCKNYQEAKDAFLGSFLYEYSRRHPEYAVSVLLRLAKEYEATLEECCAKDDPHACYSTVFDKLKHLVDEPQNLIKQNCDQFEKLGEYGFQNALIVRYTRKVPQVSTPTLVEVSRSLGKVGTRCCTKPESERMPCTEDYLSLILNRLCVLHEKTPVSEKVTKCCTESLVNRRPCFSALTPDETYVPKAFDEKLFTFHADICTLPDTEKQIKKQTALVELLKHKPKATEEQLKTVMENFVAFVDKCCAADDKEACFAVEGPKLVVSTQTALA

IC50 [2]	SMILES	inhibition at 25 µg/mL [1]	Dye leakage (mean ± S.E) ([3]; 45 minutes before Evans blue, control 25.77 ± 1.81, *significantly different from control, p < 0.01)	Inhibition (%) [3]
–	CC(C)Oc1ccc2c(=O)c(-c3ccccc3)coc2c1 [Ipriflavone, 7-isopropoxy isoflavone, reference compound]	58%	–	–
71 µM	O=C(O)c1cc([N+](=O)[O-])cc2c1NCCCC2 [Example 10, 7-Nitro-2,3,4,5-tetrahydro-1H-1-benzazepine-9-carboxylic acid]	–	–	–
–	N#Cc1cc2c(c(C(=O)O)c1)NCCCC2 [Example 11 c), 7-Cyano-2,3,4,5-tetrahydro-1H-1-benzazepine-9-carboxylic acid]	54%	–	–
–	O=C(O)c1cc2c(c(C(=O)O)c1)NCCCC2 [Example 12, 2,3,4,5-Tetrahydro-1H-1-benzazepine-7,9-di-carboxylic acid]	84%	–	–
132 µM	O=C(O)c1cc(Br)cc2c1NCCCC2 [Example 9, 7-Bromo2,3,4,5-tetrahydro-1H-1-benzazepine-9-carboxylic acid]	–	17.43 ± 1.38 µg/mL	32.3%
